Data on nine compounds can be found in patent US20250064061A1, “METHOD FOR CONTROLLING NOXIOUS ARTHROPODS” (SUMITOMO CHEMICAL COMPANY, LIMITED, priority 2021, published 2025).

Assay [1] relates to strain of German cockroaches that is resistant to multiple insecticides. The assay is described as follows: Topical application test on male adult German cockroach, multiple-insecticide-resistant strain. The class given is in vivo. As to conditions: for LD50 Resistant: 1 μL acetone solution applied to ventral surface of thorax of male adult, mortality after 4 days, Probit method, strain with L993F sodium channel and A302S GABAergic chloride channel mutations and enhanced metabolic detoxification; for Resistance ratio: calculated by formula (2) from the LD50 values of the resistant and susceptible strains; for Control of harmful arthropods showing high resistance to permethrin, deltamethrin, fipronil, indoxacarb and fluxametamide: conclusion drawn from Table 1. As for the experimental part:
(§1) An acetone solution comprising a prescribed concentration of each of permethrin, deltamethrin, fipronil, indoxacarb, fluxametamide, broflanilide, nicofluprole, cyproflanilide, or isocycloseram was prepared, and 1 μL of the acetone solution was applied to a ventral surface of thorax of a male adult of German cockroach. Two strains of German cockroaches, i.e., the strain of German cockroaches that is susceptible to insecticides and the strain of German cockroaches that is resistant to multiple insecticides, were used. The strain of German cockroaches that is resistant to multiple insecticides is highly resistant to pyrethroid compounds, phenylpyrazole compounds, and oxadiazine compounds. As the resistance mechanism, the strain has the L993F mutation of voltage-dependent sodium channel resulting in pyrethroid resistance, the A302S mutation of GABAergic chloride ion channel resulting in dieldrin resistance, and enhanced metabolic detoxification activities. The application concentrations were three or more concentrations resulting in 0 to 100% of mortality of insects (comprising one or more concentrations resulting in less than 50% mortality of insects, and one or more concentrations resulting in more than 50% mortality of insects), and the number of test insects per concentration was ten in duplicate. After 4 days, the number of dead German cockroach(es) was investigated, and LD50 value was calculated by the Probit method. The mortalities of insects of 0% and 100% were corrected by the method of Miller and Tainter represented by the following formula (1), and corrected mortalities of insects were used when LD50 values were calculated. The resistance ratio was calculated according to the following formula (2) by using the obtained LD50 values. In this test, a dead insect refers to an insect in which the action was completely stopped.

In assay [2] the test system is strain of German cockroaches that is susceptible to insecticides. The assay is described as follows: Topical application test on male adult German cockroach, insecticide-susceptible strain. The class given is in vivo. The note with it: 1 μL acetone solution applied to ventral surface of thorax of male adult; mortality after 4 days; Probit method. As for the experimental part: as §1

Molecules are shown by their SMILES.

For the compound `CN(C(=O)c1ccccc1)c1cccc(C(=O)Nc2c(Br)cc(C(F)(C(F)(F)F)C(F)(F)F)cc2C(F)(F)F)c1F` [Broflanilide, broflanilide], in assay [1], the “LD50 Resistant” value was 0.021 μg/insect; the Resistance ratio was 2.3; the “Control of harmful arthropods showing high resistance to permethrin, deltamethrin, fipronil, indoxacarb and fluxametamide” value was “can effectively control”. Further, the “LD50 Susceptible” value in assay [2] stood at 0.0093 μg/insect.
In the same order, the values of `CCN1OCC(NC(=O)c2ccc(C3=NOC(c4cc(Cl)c(F)c(Cl)c4)(C(F)(F)F)C3)cc2C)C1=O` (stereo not shown) [Isocycloseram, isocycloseram] are 0.10 μg/insect, 1.7, “can effectively control” and 0.059 μg/insect.
Taken in the same sequence, the figures for `CN(C(=O)c1cc(-c2cnn(-c3c(Cl)cc(C(F)(C(F)(F)F)C(F)(F)F)cc3Cl)c2)cnc1Cl)C1CC1` [Nicofluprole, nicofluprole] were 0.0065 μg/insect, 2.4, “can effectively control” and 0.0027 μg/insect.
On to `N#Cc1nn(-c2c(Cl)cc(C(F)(F)F)cc2Cl)c(N)c1[S+]([O-])C(F)(F)F` (stereo not shown) [Fipronil, fipronil], for which, in assay [1], the “LD50 Resistant” value was 0.14 μg/insect and the Resistance ratio is on record as 41. Further, the “LD50 Susceptible” value in assay [2] came to 0.0034 μg/insect.
In the same order, the values of `COC(=O)N(C(=O)N1CO[C@@]2(C(=O)OC)Cc3cc(Cl)ccc3C2=N1)c1ccc(OC(F)(F)F)cc1` [Indoxacarb, indoxacarb] are more than 50 μg/insect, more than 200 and 0.25 μg/insect.
`O=C(Nc1c(Br)cc(C(F)(C(F)(F)F)C(F)(F)F)cc1C(F)(F)F)c1cccc(N(CC2CC2)C(=O)c2ccc(F)cc2)c1F` [Cyproflanilide, cyproflanilide]: in assay [1], the “LD50 Resistant” value came out at 0.035 μg/insect; the Resistance ratio is 1.2; the “Control of harmful arthropods showing high resistance to permethrin, deltamethrin, fipronil, indoxacarb and fluxametamide” value is “can effectively control”. Moreover, the “LD50 Susceptible” value in assay [2] amounted to 0.028 μg/insect.
With `CC1(C)C(C=C(Cl)Cl)C1C(=O)OCc1cccc(Oc2ccccc2)c1` (stereo not shown) [Permethrin, permethrin], in assay [1], the “LD50 Resistant” value is more than 50 μg/insect and the Resistance ratio is more than 180. Moreover, in assay [2], the “LD50 Susceptible” value was 0.28 μg/insect.
Taken in the same sequence, the figures for `CON=CNC(=O)c1ccc(C2=NOC(c3cc(Cl)cc(Cl)c3)(C(F)(F)F)C2)cc1C` (stereo not shown) [Fluxametamide, fluxametamide] were 2.7 μg/insect, 46 and 0.059 μg/insect.
Take `CC1(C)[C@H](C(=O)O[C@H](C#N)c2cccc(Oc3ccccc3)c2)[C@@H]1C=C(Br)Br` [Deltamethrin, deltamethrin]: in assay [1], the “LD50 Resistant” value is 0.68 μg/insect and the Resistance ratio is recorded as 43. In addition, the “LD50 Susceptible” value in assay [2] was determined as 0.016 μg/insect.
